Test [1] deals with T1, PPAR-α (Homo sapiens, UniProt Q07869).
T1 construct: expressed in transfected cells; host or cells: CV-1 (African green monkey kidney)
T1 sequence (Q07869 167-468): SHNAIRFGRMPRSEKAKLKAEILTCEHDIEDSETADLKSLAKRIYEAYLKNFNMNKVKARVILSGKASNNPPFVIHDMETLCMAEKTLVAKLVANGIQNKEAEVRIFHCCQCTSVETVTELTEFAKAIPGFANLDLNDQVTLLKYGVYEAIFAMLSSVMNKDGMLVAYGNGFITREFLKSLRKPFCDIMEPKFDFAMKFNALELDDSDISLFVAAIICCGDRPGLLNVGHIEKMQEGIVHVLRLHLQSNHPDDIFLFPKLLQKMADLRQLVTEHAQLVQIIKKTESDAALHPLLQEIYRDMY
Put plainly: PPAR-α reporter assay (GAL4 luciferase, CV-1 cells). The settings on record: induction ratio of luciferase activity at 50 μM, activity without tested compound = 1, hGR-GAL4-hPPAR-α. Type of test: cell-based. As for the experimental part: The reporter assay of PPAR (peroxisome proliferator-activated receptor)-α was conducted by using the following plasmids in accordance with the known report (Steven A. Kliwer et al., The Journal of Biological Chemistry Vol. 270, No. 22: 12953-12956, 1995).
As luciferase expressing plasmid, used was the plasmid which introduces the sequence wherein 5 yeast GAL4 binding sequences, UAS (upstream activating sequence), are tandemly connected to the upstream of the thymidine kinase promoter of pTAL-Luc (#6252-1, produced by Clontech) (UAS×5-TK-Luc) (1).
As PPAR-α receptor expressing plasmid, used was the plasmid which introduces the N-terminal domain of human GR (1-76aa), the yeast GAL4 DNA binding domain (1-147aa) and PPAR-α ligand binding domain (167-468aa) to NotI site and SalI site of pExchange-1 core vector (#211176, produced by Stratagene) (hGR-GAL4-hPPAR-α) (2). The plasmid mixed solution used in the reporter assay of PPAR-α contains above (1), (2) and plasmid pcDNA3.1(−) as a carrier in the weight ratio of 4:1:3.
The medium having the following composition was used for seeding cell line CV-1 used in the reporter assay, derived from the kidney of an African green monkey, on the plate; and for diluting the tested compounds. Used was Dulbecco modified Eagle medium (D2902 without phenol red, produced by SIGMA) to which 3.7 g/L of NaHCO3, 3.5 g/L of D-glucose and 10% v/v fetal bovine serum were added.
(§1) CV-1 cells were seeded on the 384-well white plate (781080, produced by Greiner) to become 1.5×10^4 cells/30 μL per one well. Then, gene transfer was conducted in accordance with the manual by using OPTI-MEM I (11058-021, produced by GIBCO), FuGENE6 (1-815-075, produced by Roche) and the above PPAR-α plasmid mixed solution. The incubation was conducted in a carbon-dioxide incubator at 37° C. for 6 to 8 hours. Then, a diluted tested compound was added thereto and incubated in a carbon-dioxide incubator at 37° C. for 16 to 18 hours. Britelite (6016979, produced by PerkinElmer) was further added thereto and stirred, and the luciferase activity was measured with EnVision (produced by PerkinElmer).
(§2) Specifying the luciferase activity without addition of a tested compound as 1, the induction ratio of the luciferase activity by each tested compound was calculated.
On the technique in general: In a reporter assay the amount or activity of a reporter protein is the signal.

For test [2], the target named is T2, PPAR-γ (Homo sapiens, UniProt P37231).
T2 construct: expressed in transfected cells; host or cells: CV-1 (African green monkey kidney)
T2 sequence (P37231 204-505): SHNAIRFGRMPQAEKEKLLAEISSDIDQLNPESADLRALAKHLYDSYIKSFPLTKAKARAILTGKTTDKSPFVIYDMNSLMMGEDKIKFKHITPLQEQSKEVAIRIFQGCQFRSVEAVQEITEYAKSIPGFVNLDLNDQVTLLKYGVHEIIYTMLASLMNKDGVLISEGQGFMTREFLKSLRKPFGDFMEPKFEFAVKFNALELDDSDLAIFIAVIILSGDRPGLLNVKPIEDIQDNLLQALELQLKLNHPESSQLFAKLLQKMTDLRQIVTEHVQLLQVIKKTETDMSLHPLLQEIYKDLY
Briefly: PPAR-γ reporter assay (GAL4 luciferase, CV-1 cells). Type of test: cell-based. The settings on record: induction ratio of luciferase activity at 25 μM, activity without tested compound = 1, hGR-GAL4-hPPAR-γ. How it is done:
The reporter assay of PPAR-γ was conducted by using the following plasmids in accordance with the known report (Steven A. Kliwer et al., The Journal of Biological Chemistry Vol. 270, No. 22: 12953-12956, 1995).
As luciferase expressing plasmid, used was the plasmid which introduces the sequence wherein 5 yeast GAL4 binding sequences, UAS, are tandemly connected to the upstream of the thymidine kinase promoter of pTAL-Luc (#6252-1, produced by Clontech) (UAS×5-TK-Luc) (1).
As PPAR-γ receptor expressing plasmid, used was the plasmid which introduces the N-terminal domain of human GR (1-76aa), the yeast GAL4 DNA binding domain (1-147aa) and PPAR-γ2 ligand binding domain (204-505aa) to NotI site and SalI site of pExchange-1 core vector (#211176, produced by Stratagene) (hGR-GAL4-hPPAR-γ) (2). The plasmid mixed solution used in the reporter assay of PPAR-γ contains above (1), (2) and plasmid pcDNA3.1(−) as a carrier in the weight ratio of 4:1:3.
as §1, with “PPAR-γ” for “PPAR-α”
as §2

SMILES strings stand for the structures.

`CCCCCCCCCCCC(=O)N[C@H](C(=O)O)C(C)(C)C` [Example 33]: in test [1], the PPAR-α induction ratio amounted to 81.0. Further, in test [2], the PPAR-γ induction ratio was 30.2.

In the case of `CCCCCCCCCCCC(=O)N[C@H](C(=O)O)[C@H](C)CC` [Example 35], the PPAR-α induction ratio in test [1] is 54.7. In test [2], the PPAR-γ induction ratio stood at 21.1.

Take `CCCCCCCCCCCC(=O)N[C@H](C(=O)O)c1ccccc1` [Example 36]: in test [1], the PPAR-α induction ratio came to 12.5. The PPAR-γ induction ratio in test [2] worked out at 8.7.

Regarding `CCCCCCCCCCCC(=O)N[C@@H](Cc1ccc(OC)cc1)C(=O)O` [Example 37], the PPAR-α induction ratio in test [1] is recorded as 24.5. The PPAR-γ induction ratio in test [2] is recorded as 19.5.

As for `CCCCCCCCCCCC(=O)N[C@H](C(=O)O)C1CCCCC1` [Example 39], the PPAR-α induction ratio in test [1] turned out to be 2.3. Moreover, the PPAR-γ induction ratio in test [2] came out at 11.2.

For the molecule `CCCCCCCCCCCC(=O)N[C@H](C(=O)O)C(c1ccccc1)c1ccccc1` [Example 40], in test [1], the PPAR-α induction ratio is 2.0. The PPAR-γ induction ratio in test [2] is given as 1.5.

Turning to `CCCCCCCCCCCC(=O)N[C@@H](Cc1ccc(Cl)cc1)C(=O)O` [Example 42], the PPAR-α induction ratio in test [1] is 14.4. Moreover, in test [2], the PPAR-γ induction ratio stood at 6.6.

Regarding `CCCCCCCCCCCC(=O)N[C@@H](Cc1csc2ccccc12)C(=O)O` [Example 43], in test [1], the PPAR-α induction ratio is listed as 3.0. Besides, the PPAR-γ induction ratio in test [2] worked out at 2.2.

As to `CCCCCCCCCCCC(=O)NC1(C(=O)O)CCCCCC1` [Example 44], the PPAR-α induction ratio in test [1] is 6.2. Besides, in test [2], the PPAR-γ induction ratio was found to be 6.7.

(Values after patent US7728158B2, “PPAR activity regulators” (Ajinomoto Co., Inc., priority 2006, dated 2010).)
